Laboratory results taken from patent publication US10738028B2, “Spiro three-membered ring, spiro five-membered ring peptide deformylase inhibitor and use thereof in antibacteria and anti-tumor” (priority 2016, dated 2020).

What was measured:
Format in all cases: cell-based
[1] = test system: Enterococcus faecalis (EFA); experiment: MIC, two-fold agar dilution (CLSI), clinical isolates
Method in brief: (§1)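 Susceptibility was tested using CLSI two-fold agar dilution against the strains examined.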

[2] = test system: Enterococcus faecium (EFM); experiment: as above
Method in brief: as §1

[3] = test system: Escherichia coli (including ESBLs, non-ESBLs); experiment: as above
Method in brief: as §1

[4] = test system: Moraxella catarrhalis (BCA); experiment: as above; conditions: for Anti-bacterial activity (MIC), strain BCA 14-10: clinical isolate BCA 14-10
Method in brief: as §1

[5] = test system: Streptococcus pneoumoniae (SPN); experiment: as above
Method in brief: as §1

[6] = test system: methicillin-resistant Staphylococcus aureus (MRSA); experiment: as above
Method in brief: as §1

[7] = test system: methicillin-resistant Staphylococcus epidermidis (MRSE); experiment: as above
Method in brief: as §1

[8] = test system: methicillin-sensitive Staphylococcus aureus (MSSA); experiment: as above
Method in brief: as §1

[9] = test system: methicillin-sensitive Staphylococcus epidermidis (MSSE); experiment: as above
Method in brief: as §1

[10] = test system: HCT-116 colorectal cancer cell line; experiment: CCK-8 proliferation inhibition; conditions: concentration of 30 μM, 72 hours, CCK-8; for inhibition at 30 µM: Homo sapiens, HCT-116, 72 h, read-out: HCT116 inhibition rate/%; for HCT116 inhibition rate/%: 30 µM
Method in brief: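 HCT-116 cells, seeded at 2000 cells/well in McCoy's 5A with 10% newborn bovine serum, were cultured overnight at 37° C., 5% CO2, then exposed to compound dilutions in medium for 72 hours. Viability was read with 1:10 diluted CCK-8; controls received 1‰ DMSO.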

[11] = test system: A549 lung cancer cell line; experiment: CCK-8 proliferation inhibition; conditions: concentration of 30 μM; for inhibition at 30 µM: Homo sapiens, A549, 72 h
Method in brief: (§2)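 Plating at 2000 cells/well, then incubation overnight at 37° C. Next, a range of compound concentrations for 72 hours (control 1‰ DMSO). Finally, medium decanted and CCK-8 diluted 1:10 added.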

[12] = test system: BEL-7402 liver cancer cell line; experiment: CCK-8 proliferation inhibition; conditions: concentration of 30 μM; for Inhibition of proliferation, Liver cancer BEL-7402: 72 hours, 30 µM
Method in brief: as §2

[13] = test system: MGC-803 gastric cancer cell line; experiment: CCK-8 proliferation inhibition; conditions: Homo sapiens, MGC-803, 72 h, concentration of 30 μM
Method in brief: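 Cells were seeded at 2000 cells/well and cultured overnight at 37° C, 5% CO2, then exposed for 72 hours to compounds diluted from DMSO stocks. Controls received 1‰ DMSO. CCK-8 (1:10 diluted) replaced the medium. MGC-803 and Jurkat were grown in 1640, PC3 in F12, and MCF-7 in DMEM high glucose, each with 10% newborn bovine serum.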

O=CN(O)C[C@@H](CC1CCCC1)C(=O)N1CC2(CC2)C[C@H]1C(=O)Nc1ncco1 [Example 36]
> 50%: inhibition at 30 µM [10]
2 µg/mL: MIC (anti-bacterial activity) ([2]; strain EFM 15-3) | Anti-bacterial activity (MIC), strain BCA 14-10 [4] | MIC (anti-bacterial activity) ([5]; strain SPN 16-2)
16 µg/mL: MIC (anti-bacterial activity) ([1]; strain EFA 15-1) | MIC (anti-bacterial activity) ([1]; strain EFA 15-2) | MIC (anti-bacterial activity) ([1]; strain EFA 15-3) | MIC (anti-bacterial activity) ([1]; strain EFA 15-4) | MIC (anti-bacterial activity) ([1]; strain EFA 15-5) | MIC (anti-bacterial activity) ([1]; strain EFA 15-6) | MIC (anti-bacterial activity) ([1]; strain EFA 15-9) | MIC (anti-bacterial activity) ([2]; strain EFM 15-1) | MIC (anti-bacterial activity) ([4]; strain BCA 14-1) | MIC (anti-bacterial activity) ([4]; strain BCA 14-4) | MIC (anti-bacterial activity) ([4]; strain BCA 14-6) | MIC (anti-bacterial activity) ([5]; strain SPN 16-4)
60%: HCT116 inhibition rate/% [10]
73%: Inhibition of proliferation, Liver cancer BEL-7402 [12]
8 µg/mL: MIC (anti-bacterial activity) ([2]; strain EFM 15-2) | MIC (anti-bacterial activity) ([2]; strain EFM 15-4) | MIC (anti-bacterial activity) ([2]; strain EFM 15-5) | MIC (anti-bacterial activity) ([2]; strain EFM 15-6) | MIC (anti-bacterial activity) ([3]; strain ECO+ 15-1) | MIC (anti-bacterial activity) ([4]; strain BCA 14-8) | MIC (anti-bacterial activity) ([6]; strain MRSA 15-2) | MIC (anti-bacterial activity) ([6]; strain MRSA 15-4) | MIC (anti-bacterial activity) ([7]; strain MRSE 15-2) | MIC (anti-bacterial activity) ([7]; strain MRSE 15-3) | MIC (anti-bacterial activity) ([7]; strain MRSE 15-7) | MIC (anti-bacterial activity) ([8]; strain MSSA 15-3) | MIC (anti-bacterial activity) ([8]; strain MSSA 15-4) | MIC (anti-bacterial activity) ([8]; strain MSSA 15-5) | MIC (anti-bacterial activity) ([9]; strain MSSE 15-3) | MIC (anti-bacterial activity) ([9]; strain MSSE 15-4) | MIC (anti-bacterial activity) ([9]; strain MSSE 15-5) | MIC (anti-bacterial activity) ([9]; strain MSSE 15-6)
4 µg/mL: MIC (anti-bacterial activity) ([4]; strain BCA 14-5) | MIC (anti-bacterial activity) ([4]; strain BCA 14-7) | MIC (anti-bacterial activity) ([6]; strain MRSA 15-1) | MIC (anti-bacterial activity) ([6]; strain MRSA 15-3) | MIC (anti-bacterial activity) ([7]; strain MRSE 15-1) | MIC (anti-bacterial activity) ([8]; strain MSSA 15-6)
26%: inhibition at 30 µM [11]
> 32 µg/mL: MIC (anti-bacterial activity) ([3]; strain ECO+ 15-2) | MIC (anti-bacterial activity) ([3]; strain ECO+ 15-3) | MIC (anti-bacterial activity) ([3]; strain ECO+ 15-4) | MIC (anti-bacterial activity) ([3]; strain ECO− 15-1)
46%: inhibition at 30 µM [13]
32 µg/mL: MIC (anti-bacterial activity) ([3]; strain ECO− 15-2) | MIC (anti-bacterial activity) ([3]; strain ECO− 15-3) | MIC (anti-bacterial activity) ([3]; strain ECO− 15-4)

CCCC[C@H](CC(=O)NO)C(=O)N1CC2(CC2)C[C@H]1C(=O)Nc1ccc(F)cn1 [Example 46, (S)—N-(5-fluoropyridin-2-yl)-5-((R)-2-(2-(hydroxyamino)-2-oxoethyl)hexanoyl)-5-spiro[2.4]heptane-6-carboxamide]
> 50%: inhibition at 30 µM [10] | inhibition at 30 µM [11] | inhibition at 30 µM ([12]; Homo sapiens, Bel-7402, 72 h)
0.25 µg/mL: Anti-bacterial activity (MIC), strain MRSA 15-1 ([6]; clinical isolate MRSA 15-1) | Anti-bacterial activity (MIC), strain MSSA 15-3 ([8]; clinical isolate MSSA 15-3)
4 µg/mL: Anti-bacterial activity (MIC), strain EFA 15-9 ([1]; clinical isolate EFA 15-9)
60%: Inhibition of proliferation, Lung cancer A549 ([11]; 72 hours, 30 µM)
0.5 µg/mL: Anti-bacterial activity (MIC), strain EFM 15-5 ([2]; clinical isolate EFM 15-5) | Anti-bacterial activity (MIC), strain BCA 14-5 ([4]; clinical isolate BCA 14-5) | Anti-bacterial activity (MIC), strain BCA 14-6 ([4]; clinical isolate BCA 14-6) | Anti-bacterial activity (MIC), strain BCA 14-10 [4] | Anti-bacterial activity (MIC), strain SPN 16-2 ([5]; clinical isolate SPN 16-2) | Anti-bacterial activity (MIC), strain SPN 16-4 ([5]; clinical isolate SPN 16-4)
> 32 µg/mL: Anti-bacterial activity (MIC), strain EFA 15-1 ([1]; clinical isolate EFA 15-1) | Anti-bacterial activity (MIC), strain EFA 15-2 ([1]; clinical isolate EFA 15-2) | Anti-bacterial activity (MIC), strain EFA 15-3 ([1]; clinical isolate EFA 15-3) | Anti-bacterial activity (MIC), strain EFA 15-4 ([1]; clinical isolate EFA 15-4) | Anti-bacterial activity (MIC), strain EFA 15-5 ([1]; clinical isolate EFA 15-5) | Anti-bacterial activity (MIC), strain EFA 15-6 ([1]; clinical isolate EFA 15-6) | Anti-bacterial activity (MIC), strain EFM 15-1 ([2]; clinical isolate EFM 15-1) | Anti-bacterial activity (MIC), strain EFM 15-2 ([2]; clinical isolate EFM 15-2) | Anti-bacterial activity (MIC), strain EFM 15-3 ([2]; clinical isolate EFM 15-3) | Anti-bacterial activity (MIC), strain EFM 15-4 ([2]; clinical isolate EFM 15-4) | Anti-bacterial activity (MIC), strain ECO+ 15-2 ([3]; clinical isolate ECO+ 15-2) | Anti-bacterial activity (MIC), strain ECO+ 15-3 ([3]; clinical isolate ECO+ 15-3) | Anti-bacterial activity (MIC), strain ECO− 15-1 ([3]; clinical isolate ECO− 15-1) | Anti-bacterial activity (MIC), strain ECO− 15-2 ([3]; clinical isolate ECO− 15-2) | Anti-bacterial activity (MIC), strain ECO− 15-3 ([3]; clinical isolate ECO− 15-3) | Anti-bacterial activity (MIC), strain ECO− 15-4 ([3]; clinical isolate ECO− 15-4) | Anti-bacterial activity (MIC), strain MSSA 15-6 ([8]; clinical isolate MSSA 15-6)
48%: inhibition at 30 µM [13]
1 µg/mL: Anti-bacterial activity (MIC), strain EFM 15-6 ([2]; clinical isolate EFM 15-6) | Anti-bacterial activity (MIC), strain ECO+ 15-4 ([3]; clinical isolate ECO+ 15-4) | Anti-bacterial activity (MIC), strain BCA 14-1 ([4]; clinical isolate BCA 14-1) | Anti-bacterial activity (MIC), strain BCA 14-4 ([4]; clinical isolate BCA 14-4) | Anti-bacterial activity (MIC), strain BCA 14-7 ([4]; clinical isolate BCA 14-7) | Anti-bacterial activity (MIC), strain BCA 14-8 ([4]; clinical isolate BCA 14-8) | Anti-bacterial activity (MIC), strain MRSA 15-2 ([6]; clinical isolate MRSA 15-2) | Anti-bacterial activity (MIC), strain MRSA 15-3 ([6]; clinical isolate MRSA 15-3) | Anti-bacterial activity (MIC), strain MRSA 15-4 ([6]; clinical isolate MRSA 15-4) | Anti-bacterial activity (MIC), strain MRSE 15-1 ([7]; clinical isolate MRSE 15-1) | Anti-bacterial activity (MIC), strain MRSE 15-2 ([7]; clinical isolate MRSE 15-2) | Anti-bacterial activity (MIC), strain MRSE 15-3 ([7]; clinical isolate MRSE 15-3) | Anti-bacterial activity (MIC), strain MRSE 15-7 ([7]; clinical isolate MRSE 15-7) | Anti-bacterial activity (MIC), strain MSSA 15-4 ([8]; clinical isolate MSSA 15-4) | Anti-bacterial activity (MIC), strain MSSA 15-5 ([8]; clinical isolate MSSA 15-5) | Anti-bacterial activity (MIC), strain MSSE 15-3 ([9]; clinical isolate MSSE 15-3) | Anti-bacterial activity (MIC), strain MSSE 15-4 ([9]; clinical isolate MSSE 15-4) | Anti-bacterial activity (MIC), strain MSSE 15-5 ([9]; clinical isolate MSSE 15-5) | Anti-bacterial activity (MIC), strain MSSE 15-6 ([9]; clinical isolate MSSE 15-6)
70%: Inhibition of proliferation, Liver cancer BEL-7402 [12]
58%: HCT116 inhibition rate/% [10]
32 µg/mL: Anti-bacterial activity (MIC), strain ECO+ 15-1 ([3]; clinical isolate ECO+ 15-1)
